Results published in patent US8623917B2, “Uses of prostacyclin analogs” (The Regents of the University of Colorado, a body corporate, priority 2005, dated 2014).

Experiments:
[1] = test system: urethane-induced lung tumors; assay: Urethane lung tumorigenesis protocol, oral Iloprost in diet; assay type: in vivo, FVB/N mice
Description: (§1) Transgenic mice (Tg^+) and wildtype littermates (Tg^−), 8 to 12 weeks of age, were subjected to two distinct lung carcinogenesis protocols. In the first model, urethane (ethyl carbamate), a carcinogen which selectively induces pulmonary adenomas through genetic mutations in the oncogene ras, was administered in a single intraperitoneal (ip) dose. […] BHT is a tumor promoter and induces reversible pulmonary damage characterized by alveolar type I cell necrosis, selective pulmonary inflammation, and hyperplasia of alveolar type II cells. Controls for both models consisted of mice injected with vehicle alone. The oral administration of Iloprost was investigated and found to have a similar beneficial effects to PGIS overexpression. FVB/N mice were fed a diet of low (0.1%) or high (3.0%) dose Iloprost continuously throughout the experiment and then were subjected to tumorigenesis protocols with either urethane or MCA/BHT. At the conclusion of the experiments, animals were euthanized and tumors enumerated.

[2] = test system: MCA/BHT-induced lung tumors; assay: MCA/BHT lung tumorigenesis protocol, oral Iloprost in diet; assay type: in vivo, FVB/N mice
Description: as §1

[3] = test system: cancer metastasis to the lung; settings: Iloprost administered to mice; cited from earlier work
[4] = 3.0% Iloprost diet compared with 0.1%
[5] = diet of low (0.1%) or high (3.0%) dose Iloprost continuously

Q: Which “reduction in multiplicity, high versus low dose” value [1, 4] does the source give for `CC#CCC(C)[C@H](O)/C=C/[C@@H]1[C@H]2C/C(=C/CCCC(=O)O)C[C@H]2C[C@H]1O` (some centres unmarked) [Iloprost] here?
A: greater reduction in multiplicity

Q: And the tumor multiplicity [1, 5]?
A: significant reduction in tumor multiplicity

Q: What about the “reduction in multiplicity, high versus low dose” value [2, 4] of the same molecule?
A: greater reduction in multiplicity

Q: What about the tumor multiplicity [2, 5] of the same molecule?
A: significant reduction in tumor multiplicity

Q: What about the “prevention of cancer metastasis to the lung” value [3] of the same molecule?
A: did not prevent cancer metastasis to the lung
